This note sets out measurements from PMC3608651, “A Broad Profile of Co-Dominant Epitopes Shapes the Peripheral Mycobacterium tuberculosis Specific CD8+ T-Cell Immune Response in South African Patients with Active Tuberculosis” (PLoS ONE, 2013).

Where two headings read alike, the source gives them in different places.

Format in all cases: binding
Test [1] deals with T1, HLA-C*07:01 (Homo sapiens, UniProt P10321, K90N/S123Y). As to conditions: duplicated experiments, positive binder >40%.
Test [2] concerns the target T2, HLA-B*58:01 (Homo sapiens, UniProt P01889, A329T/C349S/D201E/D98Y/E176V/E187L/E204Q/E69T/G107R/I218V/I90N/K202T/L105A/L119I/N104I/N87E/Q89R/Q94S/R106L/R155S/R180L/R86G/S101N/S121R/S35A/S48A/T118I/V127L/V306I/V36M/Y140S/Y91M). As to conditions: duplicated experiments, positive binder >40%.
In test [3] the target is T3, HLA-A*68:01 (Homo sapiens, UniProt P04439, A269V/D185E/E176V/E277Q/E87N/F33Y/G231S/I121M/I166T/I218V/L180W/L300P/L318F/N151K/P208A/P217A/Q86R/R169H/T345S). The following applies: duplicated experiments, positive binder >40%.
Test [4] addresses T1, HLA-C*07:01. The test can be described thus: affinity assay (ED50).
For test [5], the target named is T1, HLA-C*07:01. The test can be described thus: off-rate assay (t1/2). The following applies: time points 0-8 h.
Test [6] deals with T4, HLA-A*24:02 (Homo sapiens, UniProt P04439, D101N/D140Y/D185E/E176V/E190D/F33S/G103R/G107R/I119L/I121M/I306V/K335N/L105A/L180Q/L300P/N151K/N90K/Q86E/Q94H/R106L/R138H/R89G/T104I/T345S/V100E/W191G/Y123F). As to conditions: duplicated experiments, positive binder >40%.
The target in a further test is HLA-A*30:01 (Homo sapiens, UniProt P04439, D140H/D185E/E176W/F33S/G80R/H175R/K168Q/R138E/R41S). The following applies: duplicated experiments, positive binder >40%.
The target of the next test is HLA-B*07:02 (Homo sapiens, UniProt P01889). As to conditions: percent relative the binding of positive control peptide […]; duplicated experiments; positive binder >40%.
Test [7] concerns the target T5, HLA-A*02:01 (Homo sapiens, UniProt P04439, D140Y/D185E/D98H/E176V/E277Q/G131W/G231S/I119V/I121R/I166T/I218V/L300P/L318F/N151K/N90K/P208A/P217A/Q86G/Q94H/R138H/R169H/T345S). The following applies: plate-bound monomer 0.5 µg/ml, duplicated experiments, positive binder >40%.
Test [8] has as its target T6, HLA-A*30:02 (Homo sapiens, UniProt P04439, D101N/D140H/D185E/E176R/F33S/G80R/H175R/K168Q/Q94H/R138E/R41S/V100E). As to conditions: duplicated experiments, positive binder >40%.
For test [9], the target named is T6, HLA-A*30:02.
In test [10] the target is T2, HLA-B*58:01. The following applies: time points 0-8 h.
The target of test [11] is T5, HLA-A*02:01. The following applies: […]; peptide quantity for 50% binding saturation.
Test [12] deals with T2, HLA-B*58:01.
In test [13] the target is T4, HLA-A*24:02.
Test [14] concerns the target T3, HLA-A*68:01.
Test [15] concerns the target T6, HLA-A*30:02. The following applies: time points 0-8 h.
The target of test [16] is T4, HLA-A*24:02. As to conditions: time points 0-8 h.
The target of test [17] is T3, HLA-A*68:01. As to conditions: time points 0-8 h.
The target in test [18] is T5, HLA-A*02:01. As to conditions: time points 0-8 h; time when 50% of peptide has dissociated.
[19] abbreviates: percent relative the binding of positive control peptide […].
[20] abbreviates: peptide titrated 10−4 to 10−9 M.

Take YNYPAMLGH [Rv0288_6–14]: on HLA-C*07:01 [1] (setting [19]), the “Bind C*07:01” value is given as 48%. The “Bind B*58:01” value on HLA-B*58:01 [2] (setting [19]) was found to be 0%. The “Bind A*68:01” value on HLA-A*68:01 [3] (setting [19]) is 30%. Moreover, the “Aff C*07:01 (ED50)” value on HLA-C*07:01 [4] worked out at 7e-06 M. Further, the “O-rate C*07:01 (t1/2)” value at HLA-C*07:01 [5] is recorded as 0.3 h.

For the substance NNSPAVYLL, the “Bind C*07:01” value at HLA-C*07:01 [1] (setting [19]) amounted to 70%. The “Bind B*58:01” value at HLA-B*58:01 [2] (setting [19]) stood at 0%. Also, the “Bind A*24:02” value on HLA-A*24:02 [6] (setting [19]) is on record as 49%. On HLA-A*68:01 [3] (setting [19]), the “Bind A*68:01” value was 28%. In addition, the “Aff C*07:01 (ED50)” value at HLA-C*07:01 [4] was determined as 2e-07 M. Moreover, the “Bind A*30:01” value at HLA-A*30:01 (setting [19]) was 0%. At HLA-B*07:02, the “Bind B*07:02” value came out at 0%. Besides, on HLA-A*02:01 [7] (setting [19]), the “Bind A*02:01” value is reported as 16%. Besides, on HLA-A*30:02 [8] (setting [19]), the “Bind A*30:02” value is given as 0%. On HLA-C*07:01 [5], the “O-rate C*07:01 (t1/2)” value was found to be 0.6 h.

Turning to AMEDLVRAY [Rv0288_61–69], the “Bind C*07:01” value on HLA-C*07:01 [1] (setting [19]) is reported as 46%. The “Bind B*58:01” value on HLA-B*58:01 [2] (setting [19]) stood at 14%. Also, on HLA-A*68:01 [3] (setting [19]), the “Bind A*68:01” value was 0%. At HLA-C*07:01 [4], the “Aff C*07:01 (ED50)” value was determined as 5e-06 M. At HLA-C*07:01 [5], the “O-rate C*07:01 (t1/2)” value is listed as 0.1 h.

For QT YKWETFL, the “Bind C*07:01” value on HLA-C*07:01 [1] (setting [19]) stood at 15%. For the same substance, the “Bind B*58:01” value at HLA-B*58:01 [2] (setting [19]) came out at 40%. In addition, the “Aff A*30:02 (ED50)” value on HLA-A*30:02 [9] turned out to be 2E -08 M. On HLA-B*58:01 [10], the “O-rate B*58:01 (t1/2)” value was 1.5 h. At HLA-A*24:02 [6] (setting [19]), the “Bind A*24:02” value is reported as 110%. Besides, the “Aff A*02:01 (ED50)” value at HLA-A*02:01 [11] came out at 3E -07 M. Also, at HLA-A*68:01 [3] (setting [19]), the “Bind A*68:01” value came to 46%. In addition, the “Aff B*58:01 (ED50)” value on HLA-B*58:01 [12] is recorded as 2E -08 M. Also, at HLA-A*30:01 (setting [19]), the “Bind A*30:01” value was found to be 0%. Moreover, the “Aff A*24:02 (ED50)” value on HLA-A*24:02 [13] came out at 20 nM. Besides, the “Bind B*07:02” value at HLA-B*07:02 amounted to 0%. Further, the “Bind A*02:01” value on HLA-A*02:01 [7] (setting [19]) worked out at 60%. Further, the “Bind A*30:02” value on HLA-A*30:02 [8] (setting [19]) turned out to be 41%. For the same substance, the “Aff A*68:01 (ED50)” value at HLA-A*68:01 [14] came to 2E -07 M. For the same substance, the “O-rate A*30:02 (t1/2)” value at HLA-A*30:02 [15] worked out at 1 h. Further, on HLA-A*24:02 [16], the “O-rate A*24:02 (t1/2)” value came out at 2 h. Further, at HLA-A*68:01 [17], the “O-rate A*68:01 (t1/2)” value is listed as 0.7 h. Also, at HLA-A*02:01 [18], the “O-rate A*02:01 (t1/2)” value was determined as 2.6 h.

In the case of LAAAWGGSG [Rv3875_39-47], the “Bind C*07:01” value on HLA-C*07:01 [1] (percent relative the binding of positive control peptide KYFDEHYEY) amounted to 120%. Besides, the “Bind B*58:01” value on HLA-B*58:01 [2] (percent relative the binding of positive control peptide IAMESIVIW) came out at 7%. The “Aff A*30:02 (ED50)” value at HLA-A*30:02 [9] (setting [20]) amounted to 7e-09 M. Also, at HLA-A*24:02 [6] (percent relative the binding of positive control peptide RYLKDQQLL), the “Bind A*24:02” value is listed as 4%. Moreover, the “Bind A*68:01” value at HLA-A*68:01 [3] (percent relative the binding of positive control peptide KTGGPIYKR) is recorded as 10%. For the same substance, at HLA-C*07:01 [4] (setting [20]), the “Aff C*07:01 (ED50)” value is 4e-08 M. At HLA-A*30:01 (percent relative the binding of positive control peptide KTKDIVNGL), the “Bind A*30:01” value amounted to 14%. Also, at HLA-B*07:02, the “Bind B*07:02” value is 4%. Besides, the “Bind A*02:01” value at HLA-A*02:01 [7] (percent relative the binding of positive control peptide FLPSDFFPSV) stood at 8%. The “Bind A*30:02” value at HLA-A*30:02 [8] (percent relative the binding of positive control peptide KIQNFRVYY) came to 114%. The “O-rate A*30:02 (t1/2)” value at HLA-A*30:02 [15] is 2.1 h. Moreover, at HLA-C*07:01 [5], the “O-rate C*07:01 (t1/2)” value turned out to be 1.0 h.

On to LAAYHPQQF, for which the “Bind C*07:01” value on HLA-C*07:01 [1] (setting [19]) turned out to be 84%. The “Bind B*58:01” value on HLA-B*58:01 [2] (setting [19]) amounted to 13%. In addition, on HLA-A*30:02 [9], the “Aff A*30:02 (ED50)” value was 3e-07 M. Besides, at HLA-A*24:02 [6] (setting [19]), the “Bind A*24:02” value was 52%. The “Bind A*68:01” value at HLA-A*68:01 [3] (setting [19]) amounted to 37%. Also, the “Aff C*07:01 (ED50)” value on HLA-C*07:01 [4] is on record as 1E -07 M. The “Bind A*30:01” value on HLA-A*30:01 (setting [19]) amounted to 0%. In addition, on HLA-B*07:02, the “Bind B*07:02” value is recorded as 74%. In addition, at HLA-A*02:01 [7] (setting [19]), the “Bind A*02:01” value was 39%. Besides, at HLA-A*30:02 [8] (setting [19]), the “Bind A*30:02” value worked out at 66%. Further, the “O-rate A*30:02 (t1/2)” value at HLA-A*30:02 [15] is on record as 1.1 h. Moreover, at HLA-C*07:01 [5], the “O-rate C*07:01 (t1/2)” value came out at 0.4 h.

VRAYHAMSS [Rv0288_66–74]: the “Bind C*07:01” value on HLA-C*07:01 [1] (setting [19]) came to 79%. Further, the “Bind B*58:01” value at HLA-B*58:01 [2] (setting [19]) amounted to 10%. Besides, the “Bind A*68:01” value at HLA-A*68:01 [3] (setting [19]) was 29%. Besides, at HLA-C*07:01 [4], the “Aff C*07:01 (ED50)” value turned out to be 1e-06 M. Moreover, the “O-rate C*07:01 (t1/2)” value at HLA-C*07:01 [5] came to 0.2 h.

Take ANNTRLWVY: the “Bind C*07:01” value at HLA-C*07:01 [1] (setting [19]) is given as 113%. Further, at HLA-B*58:01 [2] (setting [19]), the “Bind B*58:01” value was 19%. For the same substance, the “Aff A*30:02 (ED50)” value at HLA-A*30:02 [9] was 2e-08 M. Further, the “Bind A*24:02” value at HLA-A*24:02 [6] (setting [19]) was found to be 32%. In addition, the “Bind A*68:01” value on HLA-A*68:01 [3] (setting [19]) came to 0%. On HLA-C*07:01 [4], the “Aff C*07:01 (ED50)” value stood at 5e-09 M. For the same substance, the “Bind A*30:01” value on HLA-A*30:01 (setting [19]) worked out at 19%. At HLA-B*07:02, the “Bind B*07:02” value amounted to 9%. The “Bind A*02:01” value at HLA-A*02:01 [7] (setting [19]) came out at 5%. For the same substance, the “Bind A*30:02” value on HLA-A*30:02 [8] (setting [19]) is listed as 195%. Also, the “O-rate A*30:02 (t1/2)” value at HLA-A*30:02 [15] came out at 1.9 h. Moreover, the “O-rate C*07:01 (t1/2)” value on HLA-C*07:01 [5] worked out at 0.7 h.
